From patent publication US20100210553A1, “USE OF THE PEPTIDE ASN-ASP-ASP-CYS-GLU- LEU-CYS-VAL-ASN-VAL-ALA-CYS-THR-GLY-CYS-LEU ALONE OR IN COMBINATION WITH THE PEPTIDE THR-THR-SER-GLN-VAL- ARG-PRO-ARG AS A THERAPEUTIC AGENT” (priority 2007, published 2010)
Ends that are not written are not given here.

Legend:
HUVEC = test: Endothelial tube formation assay; assay type: cell-based, human; conditions: 10 micrograms per ml, 20 hours
Experimental: The endothelial tube formation assay is based on the ability of endothelial cells to form three-dimensional capillary-like tubular structures when cultured on a gel of basement membrane extract. The endothelial tube formation assay represents a powerful model for studying inhibition and induction of angiogenesis. Pre-labeled HUVEC with Calcein AM were seeded in a 96-well culture plate coated with extracellular metrix (Chemicon international Cat. ECM625) and treated with—10 micrograms per ml—test peptides in full growth medium. Positive control was vehicle only. The endothelial cells were allowed to form tubes for 20 hours and were then examined under an inverted fluorescent microscope. Duplicate wells for each treatment were photographed and quantitatively analyzed for an average tubule length using image analysis software ImageProPlus. Raw data were expressed as average tubule lengths in pixels ±standard deviation. Statistic p values were computed using the Student's t-test.

HCMV strain AD169 = test: HCMV plaque formation assay in MRC-5 cells; conditions: 10 micrograms per ml, 7-10 days
Streptococcus pneumoniae = Streptococcus pneumoniae assay; assay type: cell-based; conditions: 10 micrograms per ml; 5x10^5 CFU/mL, read visually; combination 0.95 mole peptide 1 and 1.05 mole peptide 2 and all other molar ratios from 1:100 to 100:1
murine spleen cells = test: Th1/Th2 cytokine profiling assay (Ovalbumin-restimulated spleen cells, CBA Kit); assay type: cell-based, mouse; conditions: 10 micrograms per ml, Ovalbumin restimulation, 72 hours, combination 0.95 mole peptide 1 and 1.05 mole peptide 2
[1] = test system: Primary Human endothelial cells (HUVEC); test: Endothelial cell migration assay; assay type: cell-based; conditions: 10 micrograms per ml, 22 hours
[2] = test system: hepatitis B virus (HBV) ayw strain; test: HBV experimental assay system (HepG2-2.2.15, TaqMan PCR of secreted HBV DNA); assay type: cell-based; conditions: 10 micrograms per ml; HepG2-2.2.15, six days; combination 0.95 mole peptide 1 and 1.05 mole peptide 2
Text: HepG2-2.2.15 is a stable cell line containing the hepatitis B virus (HBV) ayw strain genome (ATCC Cat. No. CRL-11997). Antiviral compounds blocking any late step of viral replication such as transcription, translation, pregenome encapsidation, reverse transcription, particle assembly and release can be identified and characterized using this cell line. In this assay, an active compound will reduce the production of secreted HBV from cells, measured by utilizing real time quantitative PCR (TaqMan) assay to directly and accurately measure HBV DNA copies.
HepG2-2.2.15 cells were plated in 96-well microtiter plates. After 16-24 hours the confluent monolayer of HepG2-2.2.15 cells was washed and the medium was replaced with complete medium containing test peptides—10 micrograms per ml—in duplicate. […] Six days following the initial administration of the peptides, the cell culture supernatants was collected, treated with pronase and DNAse and then used in a real-time quantitative TaqMan PCR assay. The PCR-amplified HBV DNA was detected in real-time by monitoring increases in fluorescence signals that result from the exonucleolytic degradation of a quenched fluorescence probe molecule that hybridizes to the amplified HBV DNA. […] Antiviral activity was calculated from the reduction in HBV DNA levels (% virus control). […]

Substance | inhibition of the tube formation of human endothelial cells (HUVEC) [%] | inhibition of HCMV plaque formation as compared to the virus control experiment (HCMV strain AD169) | inhibition of the growth of Streptococcus pneumoniae (Streptococcus pneumoniae) [%] | change of the production of IL-5 (murine spleen cells) | induction of the production of IFN-γ (murine spleen cells) [%] | induction of the production of IL-2 (murine spleen cells) [%] | induction of the production of IL-4 (murine spleen cells) [%] | induction of the production of TNF-alpha (murine spleen cells) [%] | inhibition of the migration of human endothelial cells [1] [%] | inhibition of HBV replication as compared to the virus control infection [2]
Asn-Asp-Asp-Cys-Glu-Leu-Cys-Val-Asn-Val-Ala-Cys-Thr-Gly-Cys-Leu-OH (NDDCELCVNVACTGCL-OH; cysteine pairing not given here) [Peptide 1, commercially available known peptide, Uroguanylin] | 18 | did not inhibit | 100 | did not significantly change | 80.8 | 66.9 | 143.8 | 57.1 | 14 | no effect
Thr-Thr-Ser-Gln-Val-Arg-Pro-Arg-OH (TTSQVRPR-OH) [Peptide 2, commercially available known peptide, (Gln^18)-Platelet Factor 4 (15-22)] | 24 | did not inhibit | 100 | did not significantly change | 47.4 | 24 | 103.9 | 43.7 | 13 | 31%
